The record followed here is patent US8242113B2, “Oxazolidinone derivatives with cyclic amidoxime or cyclic amidrazone pharmaceutical compositions thereof” (Legochem Biosciences, Inc., priority 2008, dated 2012).

Data set [1] has as its target T1, monoamine oxidase A (MAO A) (Homo sapiens, UniProt P21397).
T1 construct: purchased Sigma-Aldrich (USA)
T1 sequence (P21397 1-527): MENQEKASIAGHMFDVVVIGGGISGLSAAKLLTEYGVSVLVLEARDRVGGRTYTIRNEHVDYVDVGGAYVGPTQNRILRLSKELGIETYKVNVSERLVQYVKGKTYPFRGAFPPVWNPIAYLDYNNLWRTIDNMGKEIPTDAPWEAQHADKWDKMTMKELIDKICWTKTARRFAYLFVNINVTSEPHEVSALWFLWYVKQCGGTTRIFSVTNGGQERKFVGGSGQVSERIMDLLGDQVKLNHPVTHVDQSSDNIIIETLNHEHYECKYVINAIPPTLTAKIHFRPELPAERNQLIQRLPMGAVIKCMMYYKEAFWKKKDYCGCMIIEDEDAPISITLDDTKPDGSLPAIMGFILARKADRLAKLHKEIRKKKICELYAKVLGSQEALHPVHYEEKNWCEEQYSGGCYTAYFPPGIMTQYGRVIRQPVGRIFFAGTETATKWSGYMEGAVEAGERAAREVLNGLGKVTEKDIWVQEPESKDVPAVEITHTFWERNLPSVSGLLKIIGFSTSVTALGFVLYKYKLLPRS
The experiment in a line: MAO inhibition (MAO-GLO assay). Type of data set: biochemical. Conditions: MAO-GLO kit, compounds at 3.9-500 uM; read-out: MAOA. How it is done: (§1) The oxazolidinone derivatives according to the present invention synthesized in the examples were tested for inhibition of monoamine oxidase A (MAO A) and monoamine oxidase B (MAO B). MAO-GLO assay kit was purchased from Promega (USA) and MAO A and MAO B enzymes were purchased from Sigma-Aldrich (USA). From the aldehyde product resulting from the action of the MAO enzyme on the amine group of the substrate, luciferin methyl ester is produced. The luciferin detection reagent is then added to inactivate the MAO enzymes. The esterase and the luciferase included in the reagent oxidize luciferin, thereby emitting light. The light emission is detected to measure the activity of MAO. The light emission was detected using LEADseeker (Amershan Bioscience, Sweden). MAO activity was measured in the presence of the compounds according to the present invention at 3.9-500 uM and compared with the non-treated control group. Linezolid was used as a comparison compound. For the measurement of the MAO inhibition activity of the compounds represented by Chemical Formula 1, the IC50 value, i.e., the concentration of the compounds at which the enzymatic activity is inhibited by 50% (This value is related with the inhibition constant Ki), can be determined. The concentration of the inhibitor at which the rate of hydrolysis of the substrate is reduced to 50% (i.e., the IC50 value) can be determined from a log plot of the relative rate of hydrolysis (as compared to the non-inhibited control group) versus the concentration of the compounds of Chemical Formula 1.
(§2) The MAO inhibition effect of the compounds of Chemical Formula 1 was measured by determining the inhibition constant Ki. Ki=IC50/{1+(┌S┐/Km)} Equation 1
(§3) In Equation 1, Km is the Michaelis-Menten constant, i.e., the concentration of the substrate at which the rate of enzymatic reaction is half of the maximum, and IC50 is the concentration of the inhibitor at which the rate of the hydrolysis of the substrate is reduced by 50%. The IC50 value was measured by plotting a log plot of the relative rate of hydrolysis (as compared to the non-inhibited control group) versus the concentration of the compounds of Chemical Formula 1. GraFit statistical analysis program (version 5.0.12) purchased from Erithacus Software was used.

Data set [2] addresses T2, monoamine oxidase B (MAO B) (Homo sapiens, UniProt P27338).
T2 construct: purchased Sigma-Aldrich (USA)
T2 sequence (P27338 1-520): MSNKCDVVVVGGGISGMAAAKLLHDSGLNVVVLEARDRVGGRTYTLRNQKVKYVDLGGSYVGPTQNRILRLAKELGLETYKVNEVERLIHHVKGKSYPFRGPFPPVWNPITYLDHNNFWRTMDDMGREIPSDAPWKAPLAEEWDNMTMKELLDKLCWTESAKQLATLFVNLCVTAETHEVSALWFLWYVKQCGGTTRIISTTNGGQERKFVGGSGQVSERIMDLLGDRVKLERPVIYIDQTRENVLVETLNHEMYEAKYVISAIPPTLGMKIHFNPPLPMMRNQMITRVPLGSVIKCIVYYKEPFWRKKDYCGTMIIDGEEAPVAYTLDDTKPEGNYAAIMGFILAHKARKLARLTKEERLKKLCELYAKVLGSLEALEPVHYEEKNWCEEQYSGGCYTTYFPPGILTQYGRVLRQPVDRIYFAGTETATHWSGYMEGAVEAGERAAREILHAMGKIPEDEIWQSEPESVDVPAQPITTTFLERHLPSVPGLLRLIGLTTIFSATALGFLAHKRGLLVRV
Kind of data set: MAO inhibition (MAO-GLO assay). Type of data set: biochemical. Conditions: MAO-GLO kit, compounds at 3.9-500 uM; read-out: MAOB. How it is done: as §1, §2, §3

The nature of data set [3]: Cytotoxicity measurement by MTT assay. As to conditions: Chinese hamster. Type of data set: cell-based. The text has this: The MTT assay is a […], colorimetric assay for mammalian cell survival and cell proliferation. It depends on the reduction of tetrazolium salt MTT by the mito-chondrial succinate dehrogenase of viable cells to form a blue formazan product. The assay measures cell respiration, and the amount of formazan product to the number of living cells present in culture. In this test, Chinese hamster ovary cells (CHO-K1) were purchased from ATCC (USA). Subcultured CHO cells were detached from the culture flask by treating with trypsin-EDTA solution, and seeded on a 96-well microplate, with 5000 cells per each well. After culturing for 24 hours in a 37° C., 5% CO2 incubator, the cells were treated with the oxazolidinone derivatives according to the present invention synthesized in the above examples, at 7 different concentrations. After further culturing for 48 hours in a 37° C., 5% CO2 incubator, 15 uL of […] MTT solution was added to each well. The cells were further incubated in the 37° C., 5% CO2 incubator for about 2 hours. Then, the culture medium was discarded and 100 uL of DMSO solution was added to each well. After agitating the microplate for 30 minutes, absorbance was measured at 550 nm using Spectramax plus 190 plate reader (Molecular Devices, USA). The absorbance decrease of the compound-treated groups compared to the non-treated control group is an indication of the decrease of surviving cells, which enables the measurement of the cytotoxicity of the compounds. The CC50 value, i.e., the concentration at which the cell proliferation is reduced to 50%, of the compounds according to the present invention was computed using the GraFit statistical analysis program (version 5.0.12) purchased from Erithacus Software after calculating the percentages of the absorbance at various concentrations as compared to the control group.
A general note: Tetrazolium dyes change colour on reduction, which living cells bring about.

In data set [4] the test system is linezolid- and vancomycin-resistant Enterococcus faecalis (LVRE). Kind of data set: In vitro antibacterial activity, broth microdilution (MIC90). As to conditions: read-out: Antibacterial activity MIC90, LVRE. On the technique in general: In broth dilution the organism is exposed to a series of concentrations in liquid medium.
From the text: (§4) MIC90 measurement was made according to the broth microdilution method based on the CLSI document [Clinical and Laboratory Standards Institute Document.
(§5) The test compounds in DMSO solution were further diluted 20-fold with sterile distilled water.
Data set [5] has as its system methicillin-resistant Staphylococcus aureus (MRSA). The data set is described as above. As to conditions: read-out: Antibacterial activity MIC90, MRSA.
From the text: as §4, §5
Data set [6] in a line: Measurement of solubility in water by 1H NMR. Type of data set: physicochemical. As to conditions: for solubility at 30 min: water, thermodynamic from solid. The protocol: Water solubilities of methanesulfonates (MSA) of representative compounds among the oxazolidinone derivatives of Chemical Formula 1 were measured.
Solubility measurement was done by ^1H NMR according to the following method. First, a methanesulfonate (100 mg) of the compound was added to D2O (0.5 mL). After preparing a saturated solution by vigorous shaking for 30 minutes, the solution was filtered and 0.3 mL is taken therefrom. A reference compound solution (0.3 mL) (In this test example, DMSO diluted with D2O was used.) with an exactly known concentration was added thereto. From the ^1H NMR spectrum of the solution, the integral ratio of the sample peak to the reference (DMSO) peak was calculated. Since the concentration of the reference solution is known, the mols of the sample can be calculated from the integral ratio. Then, the solubility of the sample was calculated.

Values after ≈ are worked out from the molar mass of the structure shown. Where two headings read alike, the source gives them in different places.

Regarding `COC(=S)NC[C@H]1CN(c2ccc(N3C=NN(C=O)CC3)c(F)c2)C(=O)O1` [Compound 53], the IC50 in data set [1] came out at 24 µM; in data set [2] it was 58 µM. This compound returned a CC50 at 48 h in data set [3] greater than 130 µM. Besides, in data set [4], the MIC amounted to 8 µg/mL (≈ 20.2 µM). Further, in data set [5], the MIC90 was determined as 0.5 µg/mL (≈ 1.26 µM).

Take `CN1CCN(c2ccc(N3C[C@H](Cn4ccnn4)OC3=O)cc2F)C=N1` [Compound 83]: the IC50 is 19 µM in data set [1] and 207 µM in data set [2]. For the same compound, the concentration in solution in data set [6] (solubility at 30 min) was 117 mg/mL (≈ 326000 µM). In data set [3], the CC50 at 48 h was greater than 130 µM. Besides, the MIC in data set [4] was determined as 16 µg/mL (≈ 44.5 µM). Also, the MIC90 in data set [5] turned out to be 1 µg/mL (≈ 2.78 µM).

For the compound `CN1CCN(c2ccc(N3C[C@H](CNc4ccon4)OC3=O)cc2F)C=N1` [Compound 89], the IC50 in data set [1] is 5.2 µM; in data set [2] it was greater than 250 µM. Further, the “% solubility in water” value in data set [6] (methanesulfonate (MSA) of the compound, saturated solution in D2O, linezolid as reference) is “(13%)”. Further, the solubility at 30 min in data set [6] (read-out: Solubility of methanesulfonate in water) was found to be 129 mg/mL (≈ 345000 µM). Besides, in data set [3] (CHO-K1 cells, 48 hours treatment, MTT, read-out: CC50), the CC50 at 48 h is greater than 130 µM. For the same compound, in data set [4], the MIC worked out at 8 µg/mL (≈ 21.4 µM). Further, in data set [5], the MIC90 was 0.5 µg/mL (≈ 1.34 µM).

For the compound `CN1CCN(c2ccc(N3C[C@H](CO)OC3=O)cc2F)C=N1` [Compound 94], the IC50 is 4 µM in data set [1] and 176 µM in data set [2]. The concentration in solution in data set [6] (solubility at 30 min) was 136 mg/mL (≈ 441000 µM). The CC50 at 48 h in data set [3] was greater than 130 µM. The MIC in data set [4] is 64 µg/mL (≈ 208 µM). Moreover, the MIC90 in data set [5] is 1 µg/mL (≈ 3.24 µM).

For the compound `COC(=S)NC[C@H]1CN(c2ccc(N3C=NOCC3)cc2)C(=O)O1` [Compound 102], the IC50 in data set [1] came out at 89 µM; in data set [2] it was 84 µM. In addition, in data set [3], the CC50 at 48 h is greater than 130 µM. In addition, the MIC in data set [4] came out at 4 µg/mL (≈ 11.4 µM). In addition, the MIC90 in data set [5] stood at 0.25 µg/mL (≈ 0.713 µM).

`CC(=O)NC[C@H]1CN(c2ccc(N3CCOCC3)c(F)c2)C(=O)O1` [Linezolid, linezolid, reference compound]: the IC50 in data set [1] worked out at 7.9 µM; in data set [2] it was 4.3 µM. This compound registered a CC50 at 48 h in data set [3] greater than 130 µM. Besides, the MIC90 in data set [4] amounted to 32 µg/mL (≈ 94.9 µM); in data set [5] it was 2 µg/mL (≈ 5.93 µM).

As to `Cn1nnc(-c2ccc(-c3ccc(N4C[C@H](CO)OC4=O)cc3F)cn2)n1` [TR-700, reference compound], the values for the IC50 in data set [1] and in data set [2] were less than 2 µM and 6.1 µM, respectively. The compound further showed a CC50 at 48 h in data set [3] of 28 µM.

The CC50 is the concentration giving 50% cytotoxicity. As usually defined, the MIC90 is the lowest concentration that inhibits either 90% of growth or 90% of the strains tested, depending on the study. A word on the solubility: it is how much of the substance goes into solution per volume.
